From the NIST ThermoML archive (doi:10.1016/j.tca.2015.12.007)
“And” between values parts separate entries of the source, which are not always exact repeats. Equal entries are not always repeated. Numbers after ± are expanded uncertainties.

Experiments:
[1] = molar enthalpy of vaporization or sublimation; settings: 298.15 K; Crystal; Static calorimetry
[2] = Crystal, Calculated from knudsen effusion weight loss

For CC(C)C1C(=O)NC(=O)NC1=O [5-isopropylbarbituric acid], the molar enthalpy [1] was 29.9 ± 0.908 kcal/mol, the “vapor or sublimation pressure” value ([2]; 369.16 K) was 0.000115 ± 2e-05 kPa and 0.000107 ± 2e-05 kPa and 0.000106 ± 2e-05 kPa and the “vapor or sublimation pressure” value ([2]; 371.12 K) was 0.000138 ± 2.1e-05 kPa and 0.000135 ± 2.1e-05 kPa. The “vapor or sublimation pressure” value ([2]; 373.08 K) was 0.000167 ± 2.1e-05 kPa and 0.000169 ± 2.1e-05 kPa and 0.000166 ± 2.1e-05 kPa, the “vapor or sublimation pressure” value ([2]; 375.16 K) was 0.000204 ± 2.1e-05 kPa and 0.000202 ± 2.1e-05 kPa and 0.000216 ± 2.1e-05 kPa and the “vapor or sublimation pressure” value ([2]; 377.12 K) was 0.000254 ± 2.2e-05 kPa and 0.000251 ± 2.2e-05 kPa and 0.000257 ± 2.2e-05 kPa. The “vapor or sublimation pressure” value ([2]; 379.09 K) was 0.000314 ± 2.3e-05 kPa and 0.000311 ± 2.3e-05 kPa and 0.000303 ± 2.3e-05 kPa, the “vapor or sublimation pressure” value ([2]; 381.16 K) was 0.000371 ± 2.4e-05 kPa and 0.00037 ± 2.4e-05 kPa and 0.000389 ± 2.4e-05 kPa and the “vapor or sublimation pressure” value ([2]; 383.11 K) was 0.000461 ± 2.6e-05 kPa and 0.000453 ± 2.6e-05 kPa and 0.000465 ± 2.6e-05 kPa. The “vapor or sublimation pressure” value ([2]; 385.09 K) was 0.000559 ± 2.8e-05 kPa and 0.000555 ± 2.8e-05 kPa and 0.000554 ± 2.8e-05 kPa, the “vapor or sublimation pressure” value ([2]; 387.15 K) was 0.000674 ± 3.1e-05 kPa and 0.000675 ± 3.1e-05 kPa and 0.000708 ± 3.2e-05 kPa and the “vapor or sublimation pressure” value ([2]; 389.13 K) was 0.000839 ± 3.6e-05 kPa and 0.000843 ± 3.6e-05 kPa and 0.000844 ± 3.6e-05 kPa. For the same compound, the “vapor or sublimation pressure” value ([2]; 391.11 K) was 0.000998 ± 4.1e-05 kPa and 0.001017 ± 7.9e-05 kPa and 0.001009 ± 7.8e-05 kPa.
